Test system: IKr expression in human iPSCDCMs
Assay: IKr expression in human iPSCDCMs after 48 hour treatment with Endo-Porter transfected morpholino AS oligonucleotide, whole-cell patch clamp
Type: cell-based
Excerpt: Our approach is based on studies showing that morpholino anti-sense (AS) oligonucleotides increased HERG expression in HEK293 cells. We examined the ability of these endoporter (Endo-Porter delivery system) transfected morpholino AS oligonucleotides to increase IKr expression in human iPSCDCMs. The morpholino AS oligonucleotide Endo-Porter, is a proprietary weak-base amphiphilic peptide that was designed to deliver non-ionic substances into the cytosol/nuclear compartment of cells by an endocytosis-mediated process. Following a 48 hour treatment with morpholino AS oligonucleotide (alpha2NS 05Z) significant increase (p<0.05) in IKr expression was observed compared to naïve/vehicle and an inverse morpholino AS oligonucleotide control (MPL ZN9DSZ INV) (Morpholino AS oligonucleotide (n=28): 0.29±0.04 pA/pF, INV control (n=7): 0.11±0.08 pA/pF). […] In naïve/vehicle treated cells we observed a near equal frequency of cells expressing current densities <0.2 pA/pF and >0.2 pA/pF. However, following morpholino AS oligonucleotide treatment cells expressing current densities >0.2 pA/pF increased to 71% p<0.05 as shown in FIG. 4.

Substance: 5′-CAGAACACAGTAGTGAATCAAAACC-3′ (all phosphorodiamidate morpholino (PMO)) [alpha2NS 05Z, morpholino anti-sense oligonucleotide specific for a polyadenylation signal in Intron 9 of the KCNH2 gene]
- cells expressing IKr current densities >0.2 pA/pF (hiPSCDCMs after morpholino AS oligonucleotide treatment, p<0.05, near equal frequency in naïve/vehicle cells, FIG. 4): 71%
- IKr current density (hiPSCDCMs, 48 hour treatment, mean ± spread, n=28 (morpholino AS), n=7 (INV control)): 0.29±0.04 pA/pF
- distribution of IKr current densities ≤0.2 pA/pF or >0.2 pA/pF versus naïve/vehicle cells (hiPSCDCMs, p<0.05, FIG. 4): significant shift

Source: patent US20200240980A1, “METHOD FOR DELAYED RECTIFIER CURRENT ENHANCEMENT, CHARACTERIZATION, AND ANALYSIS IN HUMAN INDUCED PLURIPOTENT STEM CELLS” (The Research Foundation for The State University of New York, priority 2017, published 2020)
